Measured values from patent publication US11786555B2, “RAR selective agonists in combination with immune modulators for cancer immunotherapy” (IO THERAPEUTICS, INC., priority 2017, dated 2023).

Test system: H929 Luc+ cells with WT or Smo-KO stroma
Assay: subcutaneous xenograft model of MM-niche interactions, bioluminescence
Assay type: in vivo, mouse
Method: FIG. 9 depicts bioluminescent images of mice showing tumor burden during 4 weeks of treatment with IRX (10 mg/kg), BTZ (0.5 mg/kg), or the combination. Anterior tumors consisted of a combination of MM.1S luciferase^+ cells and Smo^FI/FI BM stroma cells transduced with a control vector (WT BM stroma). Posterior tumors consisted of a combination of MM.1S luciferase^+ cells and Smo^FI/FI BM stroma cells transduced with Cre-recombinase (Smo KO BM stroma).
FIG. 10 depicts the fold change in bioluminescence (photons/second) of tumors during 4 weeks of treatment. The change in bioluminescence for each tumor […].
Mouse xenografts. 1×10^6 H929 Luc+ cells and 1×10^6 mouse BM stromal cells were resuspended in 100 μl […]®, diluted with RPMI (1:1), and injected subcutaneously into 16-week-old male NSG mice. After 4 days, treatment with BTZ (0.5 mg/kg i.p. twice weekly) and IRX (10 mg/kg i.p. daily) was initiated. Tumor burden was assessed by bioluminescence using the In Vivo Imaging System (PerkinElmer). For imaging, mice were exposed to 120 mg/kg D-luciferin via intraperitoneal injection […] before imaging and were anesthetized using isoflurane. Images were analyzed with Living Image Software, version 2.5 (PerkinElmer), and data were quantified as photons/second.
To study to what extent an RA-low environment created by the BM stroma and enhanced by MM cells via paracrine Hedgehog signaling contributes to BTZ resistance, a xenograft model of MM-niche interactions was developed. Each mouse carried 2 subcutaneous tumors consisting of H929 Luc+ cells and either WT (anterior tumors) or Smo-KO stroma (posterior tumors). Mice were treated with IRX (10 mg/kg i.p. daily), BTZ (0.5 mg/kg i.p. twice weekly), or a combination of both. The growth of tumors bearing WT or Smo-KO stroma was not different in untreated or IRX-treated groups (FIGS. 9 and 10). […] While some tumors in the treatment group receiving combined IRX and BTZ appeared to have regressed completely, even after anatomical study, this was not the case for all the mice in this group.

## CC1(C)CCC(C)(C)c2c1cc(C(=O)Nc1cc(F)c(C(=O)O)c(F)c1)c(O)c2Cl [IRX5183]
IRX 10 mg/kg i.p. daily
  growth of tumors bearing WT versus Smo-KO stroma: not different
Combination of IRX and BTZ, WT or Smo-KO stroma
  tumor response (bioluminescence): significant and equivalent response, regardless of the phenotype of the stromal compartment
